Laboratory results as given in US11987788B2, “Methods and compositions for changing the composition of the skin microbiome using complex mixtures of bacterial strains” (S-Biomedic NV, priority 2015, dated 2024).
In brackets after ≈: the same amount, converted by molar mass. Like-named read-outs stand apart in the source and are kept apart here. No end group written: not given here.

Assays:
[1] = system: Propionibacterium acnes (ATCC 11827); assay: Minimum Inhibitory Concentration Assay; assay type: cell-based; details: ATCC 11827 (A5), visible growth, duplicate
Description: (§1) The Minimum Inhibitory Concentration Assay assessed the in vitro antimicrobial potency of the test compound. […] 4 compounds were tested, which are commonly used in cosmetics or to treat acne for their effect on the growth of different P. acnes strains. The 4 tested compounds were glycolic acid, salicylic acid, lactic acid and hyaluronic acid. The first 3 are commonly used in products to treat acne, while the last one is a commonly used cosmetic compound. Any other compound can be tested the same way. The test substance was dissolved in water or DMSO (for salicylic acid) and 4 μl of the test substance was added to 196 μl of growth medium resulting in the highest tested compound concentration. Then this concentration was diluted by 2-fold serial titrations, for a total of 11 concentrations and the final vehicle concentration was 2 percent. Following incubation, the test plate was visually examined and each well was scored for growth or complete inhibition of growth; then the MIC was recorded. Each test substance was evaluated in duplicate. Vehicle-control and an active reference agent (clindamycin) were used as blank and positive controls, respectively. The following three strains were used to assess whether strain specific differences in the tolerance to these compounds could be observed: • Propionibacterium acnes (ATCC 11827)—A5 • Propionibacterium acnes (ATCC 29399) • Propionibacterium acnes (ATCC 6919)—A1 The final concentrations for each tested compound were: • 1. […] Lactic acid: 100% (13.4M): […]

[2] = system: Propionibacterium acnes (ATCC 29399); assay: Minimum Inhibitory Concentration Assay; assay type: cell-based; details: duplicate
Description: as §1

[3] = system: Propionibacterium acnes (ATCC 6919); assay: Minimum Inhibitory Concentration Assay; assay type: cell-based; details: ATCC 6919 (A1), visible growth, duplicate
Description: as §1

Seb E6/E7 sebocytes [4] = assay: Neutral lipid staining with HCS LipidTOX (lipid production); assay type: cell-based; details: 72 h stimulation; whole-well 5× and individual-cell 20× analysis
Description: An image at 5× magnification was taken from each well and then the relative fluorescence intensity quantified. Each condition was measured in triplicates. As a control, the cells were either unstimulated (blank) or stimulated with cis-9, cis-12 linoleic acid (not shown).
As a negative control, a non-stimulated blank was used and as positive control, the cells were stimulated for lipogenesis with cis-9, cis-12 linoleic acid.
Seb E6/E7 cells, which were seeded in 96-well plates and stimulated as described above were then analyzed for the induction lipid production. After 72 h of stimulation, the cells were stained with HCS LipidTOX deep red neutral lipid stain from Thermo Fisher (product no. H34477) according to the manufacturer's instructions. A final dilution of 1:450 of HCS LipidTOX dye in PBS was used for the staining. The amount of fluorescence was then evaluated using an inverted fluorescence microscope. In one approach, a complete well was imaged at 5× magnification and the total fluorescence in the image was quantified. A clear dose-dependent induction of lipid production was seen. […]
Alternatively, the fluorescent signal of individual cells, which were randomly selected from a higher magnification images, were quantified. 10 cells per image and 3 wells per condition were quantified. […]

Seb E6/E7 sebocytes [5] = system: Seb E6/E7 sebocytes
facial acne vulgaris = assay: Pilot clinical study, lesion count and irritation evaluated by a dermatologist; assay type: in vivo, human
acne = details: McLane, 2001; cited from earlier work
P. acnes = details: Allgaier et al., 1985; cited from earlier work
[6] = Cutibacterium acnes, ATCC29399, visible growth

CC(O)C(=O)O (centres unmarked) [lactic acid]
MIC (inhibition of growth) [1]: 0.2% | MIC (inhibition of growth) ([2]; visible growth): 0.6% | MIC (inhibition of growth) [3]: 0.2%

O=C(O)c1ccccc1O [salicylic acid]
MIC ([1]; Cutibacterium acnes, ATCC11827): > 6 mM | MIC [2, 6]: > 6 mM | MIC ([3]; Cutibacterium acnes, ATCC6919): > 6 mM

hyaluronic acid
MIC [1]: > 6e-05 mM | MIC ([2]; visible growth): > 6e-05 mM | MIC [3]: > 6e-05 mM

CCCCC/C=C\C=C\CCCCCCCCC(=O)O [trans-10, cis 12 linoleic acid, trans-10, cis-12 linoleic acid]
induction of lipogenesis (relative fluorescence of neutral lipids) (Seb E6/E7 sebocytes [4]): dose-dependent induction of lipogenesis | cytotoxic effect (low XTT metabolic activity with high LDH activity) (Seb E6/E7 sebocytes [5]): clear dose-dependent cytotoxic effect

O=C(OOC(=O)c1ccccc1)c1ccccc1 [Benzoyl Peroxide, Benzoyl peroxide]
subjects with reduced lesions (facial acne vulgaris; end of week 1, of 10 subjects): 4 subjects | subjects improved (dermatologist evaluation, lesions) (facial acne vulgaris; week 1 (day 7), end of 7-day Benzoyl Peroxide phase, 10 subjects): 40%

CC1=C(/C=C/C(C)=C/C=C/C(C)=C\C(=O)O)C(C)(C)CCC1 [Isotretinoin]
side effects (acne): causes skin irritation and also has teratogenic effects

O=C(O)CO [Glycolic acid, glycolic acid]
MIC ([1]; Cutibacterium acnes, ATCC11827): 18 mM (≈ 1370 µg/mL) | MIC [2, 6]: 60 mM (≈ 4560 µg/mL) | MIC ([3]; Cutibacterium acnes, ATCC6919): 18 mM (≈ 1370 µg/mL)

Epidermin: lantibiotic, antibiotic-like peptide naturally produced by S. epidermidis (IASKFICTPGCAKTGSFNSYCC; also: lantibiotic: lanthionine-type bridges, places not given here; UniProt P08136 31-52, looked up)
activity against P. acnes (P. acnes): highly active

CCCCC/C=C\C/C=C\CCCCCCCC(=O)O [cis-9, cis-12 linoleic acid]
induction of lipogenesis (relative fluorescence of neutral lipids) (Seb E6/E7 sebocytes [4]): induce lipogenesis | cytotoxic effect (low XTT metabolic activity with high LDH activity) (Seb E6/E7 sebocytes [5]; 5 days exposure, different concentrations, triplicates): no significant effect
